Laboratory results from patent US11040035B2, “3-oxo-2,6-diphenyl-2,3-dihydropyridazine-4-carboxamides” (BAYER PHARMA AKTIENGESELLSCHAFT, priority 2016, dated 2021).

What was measured:
AHR [1] = molecular target: T1, AHR (Homo sapiens, UniProt P35869); experiment: In vitro assay 1: antagonism in human cell line (transactivation assay, kynurenic acid prestimulated); details: Assay 1: AHR-luc Hum Antagonism IC50 [M], 150 μM kynurenic acid, 20 hours, firefly luciferase
T1 sequence (P35869 11-848): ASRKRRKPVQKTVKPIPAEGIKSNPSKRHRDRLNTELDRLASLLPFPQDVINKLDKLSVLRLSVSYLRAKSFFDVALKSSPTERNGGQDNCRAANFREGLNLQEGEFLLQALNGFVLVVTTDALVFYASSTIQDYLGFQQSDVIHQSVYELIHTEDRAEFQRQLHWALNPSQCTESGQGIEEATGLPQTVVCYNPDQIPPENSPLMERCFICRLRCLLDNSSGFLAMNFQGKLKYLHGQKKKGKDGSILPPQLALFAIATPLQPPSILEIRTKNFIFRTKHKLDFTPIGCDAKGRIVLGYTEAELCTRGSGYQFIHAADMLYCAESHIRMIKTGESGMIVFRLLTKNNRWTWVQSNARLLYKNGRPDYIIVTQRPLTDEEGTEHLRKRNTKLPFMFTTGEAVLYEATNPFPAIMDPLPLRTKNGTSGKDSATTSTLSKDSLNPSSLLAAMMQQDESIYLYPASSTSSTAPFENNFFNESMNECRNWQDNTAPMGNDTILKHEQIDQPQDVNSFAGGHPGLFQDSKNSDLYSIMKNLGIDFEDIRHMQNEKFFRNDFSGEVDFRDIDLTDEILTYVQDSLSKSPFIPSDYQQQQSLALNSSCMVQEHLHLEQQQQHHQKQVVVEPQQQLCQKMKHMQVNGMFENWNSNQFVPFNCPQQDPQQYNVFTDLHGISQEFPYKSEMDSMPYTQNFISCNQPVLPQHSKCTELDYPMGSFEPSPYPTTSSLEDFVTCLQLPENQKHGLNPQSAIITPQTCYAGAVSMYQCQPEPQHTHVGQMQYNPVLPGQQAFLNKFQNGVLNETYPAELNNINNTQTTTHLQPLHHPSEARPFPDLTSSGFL

AHR [2] = molecular target: T1, AHR; experiment: In vitro assay 2: agonism in human cell line (transactivation assay)
[3] = read-out: Assay 2: AHR-luc Hum Agonism IC50, no kynurenic acid, 20 hours, firefly luciferase
[4] = Assay 2: AHR-luc Hum Agonism IC50 [M], no kynurenic acid, 20 hours, firefly luciferase

Row | IC50 (AHR [1]) | IC50 (AHR [2]; [3]) | IC50 (AHR [2]; [4]) | Structure (SMILES)
1 | 6.29e-08 M |  | > 2e-05 M | CC(CCO)NC(=O)c1cc(-c2ccc(Cl)cc2)nn(-c2cccc(F)c2)c1=O (single isomer, unassigned; (+)) [Example 207, (+)-6-(4-Chlorophenyl)-2-(3-fluorophenyl)-N-(4-hydroxybutan-2-yl)-3-oxo-2,3-dihydropyridazine-4-carboxamide]
2 | 1.49e-08 M | > 2e-05 M |  | O=C(NC(CCO)C(F)(F)F)c1cc(-c2ccc(Cl)cc2)nn(-c2cccc(F)c2)c1=O (single isomer, unassigned; (+)) [Example 343, (+)-6-(4-chlorophenyl)-2-(3-fluorophenyl)-3-oxo-N-(1,1,1-trifluoro-4-hydroxybutan-2-yl)-2,3-dihydropyridazine-4-carboxamide]
3 | > 2e-05 M |  | > 2e-05 M | O=C(NC(CO)C(F)(F)F)c1cc(-c2ccc(Cl)cc2)nn(-c2cccc(F)c2)c1=O (single isomer, unassigned; (-)) [Example 98, (−)-6-(4-Chlorophenyl)-2-(3-fluorophenyl)-3-oxo-N-(1,1,1-trifluoro-3-hydroxypropan-2-yl)-2,3-dihydropyridazine-4-carboxamide]
4 | 1.21e-08 M |  | > 2e-05 M | O=C(NC(CO)C1CC1)c1cc(-c2ccc(Cl)cc2)nn(-c2cccc(F)c2)c1=O (single isomer, unassigned; (-)) [Example 194, (−)-6-(4-Chlorophenyl)-N-(1-cyclopropyl-2-hydroxyethyl)-2-(3-fluorophenyl)-3-oxo-2,3-dihydropyridazine-4-carboxamide]
5 | 2e-07 M | > 2e-05 M |  | CC(CCO)NC(=O)c1cc(-c2ccc(Cl)cc2)nn(-c2cccc(F)c2)c1=O (single isomer, unassigned; (-)) [Example 208, (−)-6-(4-Chlorophenyl)-2-(3-fluorophenyl)-N-(4-hydroxybutan-2-yl)-3-oxo-2,3-dihydropyridazine-4-carboxamide]
6 | 1.42e-07 M | > 2e-05 M |  | O=C(NC(CO)CCO)c1cc(-c2ccc(Cl)cc2)nn(-c2cccc(F)c2)c1=O (single isomer, unassigned; (-)) [Example 226, (−)-6-(4-Chlorophenyl)-N-(1,4-dihydroxybutan-2-yl)-2-(3-fluorophenyl)-3-oxo-2,3-dihydropyridazine-4-carboxamide]
7 | 4.46e-07 M |  | > 2e-05 M | O=C(NC(CCO)C(F)(F)F)c1cc(-c2ccc(Cl)cc2)nn(-c2cccc(F)c2)c1=O (single isomer, unassigned; (-)) [Example 342, (−)-6-(4-chlorophenyl)-2-(3-fluorophenyl)-3-oxo-N-(1,1,1-trifluoro-4-hydroxybutan-2-yl)-2,3-dihydropyridazine-4-carboxamide]

The remaining lines, values behind:

Row | Structure (SMILES) | IC50 (AHR [1]) | IC50 (AHR [2]; [3]) | IC50 (AHR [2]; [4])
8 | O=C(NC(CO)C1CC1)c1cc(-c2ccc(Cl)cc2)nn(-c2cccc(F)c2)c1=O (single isomer, unassigned; (+)) [Example 195, (+)-6-(4-Chlorophenyl)-N-(1-cyclopropyl-2-hydroxyethyl)-2-(3-fluorophenyl)-3-oxo-2,3-dihydropyridazine-4-carboxamide] | 2.5e-07 M | > 2e-05 M | 
9 | CC(CO)CNC(=O)c1cc(-c2ccc(Cl)cc2)nn(-c2cccc(F)c2)c1=O (single isomer, unassigned; (+)) [Example 201, (+)-6-(4-Chlorophenyl)-2-(3-fluorophenyl)-N-(3-hydroxy-2-methylpropyl)-3-oxo-2,3-dihydropyridazine-4-carboxamide] | 8.64e-08 M |  | > 2e-05 M
10 | O=C(NC(CO)C1CCC1)c1cc(-c2ccc(Cl)cc2)nn(-c2cccc(F)c2)c1=O (single isomer, unassigned; (+)) [Example 210, (+)-6-(4-Chlorophenyl)-N-(1-cyclobutyl-2-hydroxyethyl)-2-(3-fluorophenyl)-3-oxo-2,3-dihydropyridazine-4-carboxamide] | 4.12e-07 M |  | > 2e-05 M
11 | O=C(NCC(O)C(F)F)c1cc(-c2ccc(Cl)cc2)nn(-c2cccc(F)c2)c1=O (single isomer, unassigned; (+)) [Example 223, (+)-6-(4-Chlorophenyl)-N-(3,3-difluoro-2-hydroxypropyl)-2-(3-fluorophenyl)-3-oxo-2,3-dihydropyridazine-4-carboxamide] | 1.28e-07 M | > 2e-05 M | 
12 | O=C(NC(CO)CCO)c1cc(-c2ccc(Cl)cc2)nn(-c2cccc(F)c2)c1=O (single isomer, unassigned; (+)) [Example 225, (+)-6-(4-Chlorophenyl)-N-(1,4-dihydroxybutan-2-yl)-2-(3-fluorophenyl)-3-oxo-2,3-dihydropyridazine-4-carboxamide] | 2.41e-07 M |  | > 2e-05 M
13 | O=C(NCC(O)C(F)(F)F)c1cc(-c2ccc(C(F)(F)F)cc2)nn(-c2cccc(F)c2)c1=O (single isomer, unassigned; (+)) [Example 244] | 3.17e-08 M | > 2e-05 M | 
14 | O=C(NC(CO)C1CC1)c1cc(-c2ccc(C(F)(F)F)cc2)nn(-c2cccc(F)c2)c1=O (single isomer, unassigned; (+)) [Example 352, (+)-N-(1-cyclopropyl-2-hydroxyethyl)-2-(3-fluorophenyl)-3-oxo-6-[4-(trifluoromethyl)phenyl]-2,3-dihydropyridazine-4-carboxamide] | 1e-07 M | > 2e-05 M | 
15 | O=C(NCC(O)C1CC1)c1cc(-c2ccc(Cl)cc2)nn(-c2cccc(F)c2)c1=O (single isomer, unassigned; (-)) [Example 191, (−)-6-(4-Chlorophenyl)-N-(2-cyclopropyl-2-hydroxyethyl)-2-(3-fluorophenyl)-3-oxo-2,3-dihydropyridazine-4-carboxamide] | 1.1e-07 M |  | > 2e-05 M
16 | CC(CO)CNC(=O)c1cc(-c2ccc(Cl)cc2)nn(-c2cccc(F)c2)c1=O (single isomer, unassigned; (-)) [Example 202, (−)-6-(4-Chlorophenyl)-2-(3-fluorophenyl)-N-(3-hydroxy-2-methylpropyl)-3-oxo-2,3-dihydropyridazine-4-carboxamide] | 1.02e-07 M | > 2e-05 M | 
17 | O=C(NCC(O)C(F)(F)F)c1cc(-c2ccc(C(F)(F)F)cc2)nn(-c2cccc(F)c2)c1=O (single isomer, unassigned; (-)) [Example 243] | 3.13e-08 M |  | > 2e-05 M
18 | COCCC(CO)NC(=O)c1cc(-c2ccc(C(F)(F)F)cc2)nn(-c2cccc(F)c2)c1=O (single isomer, unassigned; (-)) [Example 313, (−)-2-(3-fluorophenyl)-N-(1-hydroxy-4-methoxybutan-2-yl)-3-oxo-6-[4-(trifluoromethyl)-phenyl]-2,3-dihydropyridazine-4-carboxamide] | 1.67e-08 M |  | > 2e-05 M
19 | O=C(NC(CO)C1CC1)c1cc(-c2ccc(C(F)(F)F)cc2)nn(-c2cccc(F)c2)c1=O (single isomer, unassigned; (-)) [Example 351, (−)-N-(1-cyclopropyl-2-hydroxyethyl)-2-(3-fluorophenyl)-3-oxo-6-[4-(trifluoromethyl)phenyl]-2,3-dihydropyridazine-4-carboxamide] | 4.84e-09 M |  | > 2e-05 M
20 | Cc1ccc(-c2cc(C(=O)NCC(O)C(F)(F)F)c(=O)n(-c3cccc(F)c3)n2)cc1 (single isomer, unassigned; enantiomer 1) [Example 5, 2-(3-Fluorophenyl)-6-(4-methylphenyl)-3-oxo-N-(3,3,3-trifluoro-2-hydroxypropyl)-2,3-dihydropyridazine-4-carboxamide, enantiomer 1] | 1.65e-08 M |  | > 2e-05 M
21 | Cc1ccc(-c2cc(C(=O)NCC(C)O)c(=O)n(-c3cccc(F)c3)n2)cc1 (single isomer, unassigned; enantiomer 1) [Example 14, 2-(3-Fluorophenyl)-N-(2-hydroxypropyl)-6-(4-methylphenyl)-3-oxo-2,3-dihydropyridazine-4-carboxamide, Enantiomer 1] | 1.75e-07 M |  | > 2e-05 M
22 | COCC(O)CNC(=O)c1cc(-c2ccc(C)cc2)nn(-c2cccc(F)c2)c1=O (single isomer, unassigned; enantiomer 1) [Example 17, 2-(3-Fluorophenyl)-N-(2-hydroxy-3-methoxypropyl)-6-(4-methylphenyl)-3-oxo-2,3-dihydropyridazine-4-carboxamide, Enantiomer 1] | 2.11e-07 M |  | > 2e-05 M
23 | Cc1ccc(-c2cc(C(=O)NCC(O)C(F)(F)F)c(=O)n(-c3cccc(F)c3)n2)cc1 (single isomer, unassigned; enantiomer 2) [Example 6, 2-(3-Fluorophenyl)-6-(4-methylphenyl)-3-oxo-N-(3,3,3-trifluoro-2-hydroxypropyl)-2,3-dihydropyridazine-4-carboxamide, enantiomer 2] | 6.58e-08 M | > 2e-05 M | 
